Measurements taken from patent EP4059493A1, “A CHLOROPHYLLIN CONTAINING PHARMACEUTICAL COMPOSITION FOR PREVENTION OF PATHOGENESIS OF CORONAVIRUS DISEASE” (priority 2021, dated 2022).
Like-named read-outs stand apart in the source and are kept apart here.

Assays:
[1] = tested on: neutrophils; experiment: Phase I clinical study: absolute neutrophil count (ANC) in blood; format: in vivo, human
Protocol: (§1) An open label Phase I clinical study was conducted to assess pharmacodynamics of sodium copper Chlorophyllin in healthy adult, human male subjects under fasting conditions. The study was approved by Drug Controller General of India (DCGI). The trial is registered with the Clinical Trial Registry of India (CTRI/2018/09/015576). Five healthy male subjects were allowed to fast overnight and one Chlorophyllin tablet (750 mg) was administered to each subject by oral route along with ∼200 ml water. The subjects were given breakfast, lunch and snacks and a second tablet of Chlorophyllin (750 mg) was administered to each subject by oral route along with 200 ml water after 12 hr.
(§2) Chlorophyllin tablets comprising Chlorophyllin or salts thereof (750 mg), were administered to healthy human subjects after overnight fasting. Blood samples were collected through an indwelling intravenous cannula (Venflon) placed in the fore arm vein of the subjects at different time intervals. Absolute neutrophil count (ANC) and white blood cell (WBC) counts were measured. Serum was separated and chemokine concentration in the serum was measured using cytometric bead array.

[2] = tested on: CD34+ hematopoietic stem and progenitor cells; experiment: Phase I clinical study: CD34+ hematopoietic stem and progenitor cells in blood by flow cytometry; format: in vivo, human; conditions: 750 mg tablets, fasting (Fig 2)
Protocol: as §1
Blood sample at each time point was also collected in K2EDTA vacutainer tube and erythrocytes were lysed using RBC lysis buffer. Then cells were stained with fixable far red live dead reagent and PE-CD34 and FITC-CD45 antibodies at 4°C and fixed with 4% formaldehyde. The frequency of CD34+ hematopoietic stem and progenitor cells in the blood was determined by flow cytometry and FlowJo software.

[3] = tested on: MCP-1; experiment: Phase I clinical study: serum chemokine by cytometric bead array, MCP-1; format: in vivo, human; conditions: 24hr after first dose
Protocol: as §1, §2

[4] = tested on: healthy human subjects; experiment: Phase I clinical study: tolerability in healthy human subjects; format: in vivo; conditions: 750 mg given twice a day, all five human subjects
Protocol: as §1

[5] = tested on: MIP-1α; experiment: Phase I clinical study: serum chemokine by cytometric bead array, MIP-1α; format: in vivo, human; conditions: 72hr after first dose
Protocol: as §1, §2

[6] = tested on: lymphocytes; experiment: Phase I clinical study: lymphocyte counts in blood; format: in vivo, human; conditions: Fig 4A
Protocol: as §1, §2

[7] = tested on: rats; experiment: 28 day repeat dose toxicity study; format: in vivo; conditions: daily dose of 1000 mg per kg body weight for 28 consecutive days
Protocol: (§3) Different doses of Chlorophyllin (100 to 5000 mg/kg body weight) were given to mice and rats (6 males, 6 females) by oral gavage in an accredited facility for animal toxicity testing. […] There were no signs of toxicity in rodents treated with indicated doses of Chlorophyllin.

[8] = tested on: SARS-CoV-2 virus; format: cell-based
[9] = tested on: mice; experiment: Acute oral toxicity (oral gavage), mice; format: in vivo
Protocol: as §3

[10] = tested on: rats; experiment: Acute oral toxicity (oral gavage), rats; format: in vivo
Protocol: as §3

[11] = tested on: MIP-1β; experiment: Phase I clinical study: serum chemokine by cytometric bead array, MIP-1β; format: in vivo, human; conditions: 24hr after first dose
Protocol: as §1, §2

[12] = tested on: white blood cell; experiment: Phase I clinical study: white blood cell (WBC) count in blood; format: in vivo, human; conditions: 8-16hr after first dose (750 mg), fasting
Protocol: as §1, §2

[13] = tested on: Vero CCL-81 cells; conditions: 5µM Concentration (Fig 4B right panel)

**Q.** With Sodium copper Chlorophyllin as the substance, how does the “time after first dose at which ANC increase was observed” value ([1]; 750 mg, 4hr before second dose) read?
**A.** ≤ 8 h

**Q.** What about the “increase in ANC relative to pre-dose value” ([1]; 8-16 hr after first dose (750 mg), fasting, five subjects) of the same substance?
**A.** 12.4-32.5%

**Q.** What about the “relative decrease in percentage of CD34+ HPSCs in human blood as compared to pre-dose value” [2] of the same substance?
**A.** 50-85%

**Q.** And the “relative decrease in MCP-1 in human blood as compared to pre-dose value” [3]?
**A.** 13-37%

**Q.** What about the “tolerability in human subjects” value [4] of the same substance?
**A.** well tolerated

**Q.** What about the “relative decrease in MIP-1α in human blood as compared to pre-dose value” [5] of the same substance?
**A.** 12-21%

**Q.** And the “increase in the lymphocyte counts in human blood as compared to pre-dose value” [6]?
**A.** up to 30%

**Q.** What about the “tolerability in repeat dose toxicity study” value [7] of the same substance?
**A.** well tolerated

**Q.** And the “effect on SARS-CoV-2 virus multiplication” value ([8]; 0.1 micro molar concentration (Fig 4 right panel))?
**A.** did not inhibit

**Q.** And the “inhibition of SARS-CoV-2 multiplication” value ([8]; 5 micro-molar concentration, 72 hr (three days), Vero CCL-81 cells)?
**A.** ~87%

**Q.** And the EC50 ([8]; 72 hr treatment, read-out: concentration of CHL required to inhibit the growth of SARS-CoV-2 virus by 50% (EC50))?
**A.** < 1000 nM

**Q.** What about the “concentration of chlorophyllin required for ∼90% inhibition of multiplication of SARS-CoV-2 virus” value ([8]; Fig 4) of the same substance?
**A.** about 5 micro molar

**Q.** And the EC50 ([8]; Vero CCL-81 cells, 72 hr, read-out: concentration of Chlorophyllin required for inhibition of 50% viral multiplication(EC50))?
**A.** < 1000 nM

**Q.** What about the “effect on multiplication of SARS-CoV-2 virus” value ([8]; less than 1 micro-molar concentration) of the same substance?
**A.** did not significantly decrease

**Q.** What about the “tolerability of acute oral dose” value ([9]; mice, up to 5000 mg/kg body weight, oral gavage) of the same substance?
**A.** well tolerated

**Q.** What about the LD50 dose ([9]; rodents (mice), proposed from absence of toxicity, morbidity or mortality) of the same substance?
**A.** higher than 5000 mg/kg body weight

**Q.** And the “tolerability of acute oral dose” value ([10]; rats, up to 5000 mg/kg body weight, oral gavage)?
**A.** well tolerated

**Q.** What about the LD50 dose ([10]; rodents (rats), proposed from absence of toxicity, morbidity or mortality) of the same substance?
**A.** higher than 5000 mg/kg body weight

**Q.** What about the “relative decrease in MIP-1β in human blood as compared to pre-dose value” [11] of the same substance?
**A.** 11-55%

**Q.** And the “increase in WBC count relative to pre-dose value” [12]?
**A.** 12.8-26.5%

**Q.** What about the “cytotoxicity in the target cells” value [13] of the same substance?
**A.** without causing cytotoxicity
